This is an account of results in PubChem BioAssay (NCI).

What all share (experiment): growth of human tumour cells (NCI), 48 h
Assay [1] relates to SNB-19 CNS.
The subject of assay [2] is SR leukemia.
Assay [3] relates to HCT-116 colon.
Assay [4] relates to PC-3 prostate.
Assay [5] concerns OVCAR-8 ovarian.
The test system of assay [6] is KM12 colon.
Assay [7] concerns NCI-H460 lung.
Assay [8] relates to SNB-75 CNS.
The test system of assay [9] is SW-620 colon.
Assay [10] has as its system SF-295 CNS.

Where “and” joins values, the source holds several entries; their conditions need not be identical. Equal entries are not always repeated.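 96-well plates; 48 h exposure; 5 concentrations. Endpoints by linear interpolation between flanking doses. Not reached: highest tested concentration assigned. GI50: concentration for 50% inhibition of growth. TGI denotes the concentration required for complete inhibition of growth.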

As to `NC1CCC(c2cc3ccccc3s2)(N2CCCCC2)CC1` (stereo not drawn), the TGI in assay [1] was determined as 26.8 µM; in assay [2], 3.38 µM; in assay [3], 3.05 µM; in [4], 3.59 µM; in [5] it was 3.67 µM; in [6], 3.78 µM. The TGI was 3.06 µM in assay [7], 25.2 µM in [8], 3.2 µM in assay [9] and 12.7 µM in [10].

Consider `O=C(CSC1=NCCN1)c1ccccc1`, for which the TGI in assay [1], in [2], in assay [3], in [4], in [5] and in assay [6] was over 100 µM throughout. Further, the TGI in assay [7], in assay [8], in assay [9] and in assay [10] was over 100 µM throughout.

Turning to `COC(=O)c1c(O)ccc2c1c1c(n2C)C(=O)c2ccccc2C1=O`, the TGI in assay [1] is 50.9 µM; in assay [2], over 100 µM; in assay [3], 32.1 µM; in assay [4] it was over 100 µM; in [5] it was over 100 µM; in assay [6], over 100 µM. Further, the TGI was over 100 µM in assay [7], 15 µM in assay [8], over 100 µM in assay [9] and 65.6 µM in assay [10].

As for `COC(=O)/C=C1/OC(c2ccccc2)=C(Cl)C1=O`, the TGI was over 66.9 µM in assay [1]; 17.9 µM in assay [2]; 26.3 µM in assay [3]; 31.6 µM in [4]; 48.7 µM in assay [5]; 45.6 µM in assay [6]. Further, the TGI was over 77.6 µM in assay [7], 48.5 µM in assay [8], 41.6 µM in assay [9] and over 65.1 µM in [10].

As for `Cc1nc2c(Br)cc(Br)cc2c(=O)n1-c1ccccc1N`, the TGI in assay [1] was over 100 µM; in assay [2], over 100 µM; in assay [3], 66.9 µM; in assay [4], over 100 µM; in assay [5], over 100 µM; in assay [6] it was over 100 µM. For the same molecule, the TGI in assay [7] is over 100 µM; in assay [8], 87.3 µM; in assay [9] it was over 100 µM; in assay [10], over 100 µM.

In the case of `CCN(CC)C(=O)CCCCCCCCC1CO1` (stereo not drawn), the TGI in assay [1], in assay [2], in assay [3], in [4], in assay [5] and in assay [6] was over 100 µM each time. For the same molecule, the TGI in assay [7], in assay [8], in [9] and in [10] was over 100 µM throughout.

As to `COc1ccc(CN=CN/C(C#N)=C(\N)C#N)cc1OC`, the TGI in assay [1], in assay [2], in assay [3], in assay [4], in [5] and in [6] was over 100 µM each time. The TGI in [7], in assay [8], in assay [9] and in assay [10] was over 100 µM throughout.

Turning to `O=S1(=O)c2ccccc2N2CCCc3cc(Cl)cc1c32`, the TGI in assay [1], in assay [2], in [3], in assay [4], in assay [5] and in assay [6] was over 100 µM in each case. Moreover, the TGI in assay [7] is over 100 µM; in [8], 29.9 µM; in assay [9] it was over 100 µM; in assay [10] it was 95 µM.

With `CC(NC(=O)c1ccc(OP(=O)(OCC2=CC(=O)c3ccccc3C2=O)N(C)CCCCCl)cc1)c1ccc(OCC2CCCCC2)c(C(N)=O)c1` (stereo not drawn), the TGI in assay [1] is 35.1 µM; in assay [2], 34.3 µM; in assay [3], 27.5 µM; in assay [4] it was 58.6 µM; in assay [5] it was 29.6 µM; in assay [6] it was 30.3 µM. For the same molecule, the TGI in assay [7] amounted to 22.9 µM; in assay [8], 19.5 µM; in [9], 38.3 µM; in assay [10], 19.2 µM.

For `CC1=Nn2c(nc3sc4c(c3c2=O)CCCC4)SC1`, the TGI in assay [1], in assay [2], in assay [3], in [4], in [5] and in [6] was over 100 µM in each case. Also, the TGI in assay [7], in assay [8], in [9] and in assay [10] was over 100 µM each time.

Consider `COC1C(O)=C2C(=O)OC(C)(O)/C=C/C=C\C=C/C=C/C(c3ccccc3)NC(=O)/C=C/C=C/C=C/C=C/C2(C)C1O` (stereo not drawn), for which the GI50 in assay [1] was 0.0133 µM; in [2], 0.0053 µM and 0.0269 µM; in assay [8], 0.0145 µM; in assay [10], 0.0296 µM. Moreover, the TGI was 0.239 µM and 0.112 µM in [1]; 0.0724 µM and 0.0739 µM in [3]; 0.136 µM and 0.159 µM in assay [4]; 0.0241 µM and 0.146 µM in [5]; 0.117 µM and 0.148 µM in [6]; 0.0149 µM and 0.131 µM in [7]. For the same molecule, the TGI is 0.131 µM and 0.0786 µM in assay [8]; 0.0498 µM in assay [9]; 0.0747 µM and 0.206 µM in assay [10].

As for `O=[N+]([O-])C(=C(NCc1ccccc1)NCc1ccccc1)C(Cl)=C(Cl)Cl`, the TGI in assay [1] was over 100 µM; in assay [2] it was 57.8 µM; in [3], over 100 µM; in assay [4] it was over 100 µM; in assay [5] it was over 100 µM; in [6], 47.7 µM. Further, the TGI in assay [7] is over 100 µM; in [8], 43.5 µM; in assay [9] it was over 100 µM; in assay [10] it was 60.8 µM.

`Cc1nc2ccccc2n1CCc1nc2ccccc2s1`: the TGI in assay [1], in [2], in assay [3], in assay [4], in assay [5] and in assay [6] was over 100 µM in each case. In addition, the TGI in assay [7], in assay [8], in assay [9] and in assay [10] was over 100 µM throughout.

With `CC1CC[C@]2(C(=O)O)CCC3(C)C(=C2[C@H]1C)C=CC1[C@@]2(C)CC[C@H](O)C(C)(C)C2CC[C@]13C` (stereo partly drawn), the TGI was over 100 µM in assay [1]; 66.1 µM in [2]; 64.1 µM in assay [3]; 80.1 µM in assay [4]; over 100 µM in [5]; over 100 µM in assay [6]. The TGI is over 100 µM in assay [7], 73.1 µM in assay [8], over 100 µM in assay [9] and 47 µM in [10].

With `CCN(CC)CCNc1ccc(N=Nc2ccc(S(N)(=O)=O)cc2)c2ccccc12`, the TGI in assay [1] is 27.7 µM; in [2] it was 4.94 µM; in assay [3], over 100 µM; in [4], 29.7 µM; in assay [5] it was 21.3 µM; in assay [6], 39 µM. In addition, the TGI in assay [7] is over 100 µM; in assay [8] it was 27 µM; in assay [9], 14.6 µM; in [10], 15.1 µM.

For the molecule `CC(=O)Oc1ccc2c(c1)CC[C@@H]1C2[C@@H](O[N+](=O)[O-])C[C@@]2(C)C1CC[C@@H]2O` (stereo partly drawn), the TGI in assay [1] was over 100 µM; in [2] it was over 88.1 µM; in [3], over 100 µM; in [4] it was over 100 µM; in [5], over 86.7 µM; in assay [6], over 100 µM. The TGI is over 89.1 µM in assay [7], over 85.2 µM in assay [8], over 100 µM in assay [9] and over 100 µM in assay [10].

Take `Cn1c(N/N=C/c2ccc(Cl)cc2)nc(-c2ccc(Cl)cc2)c(C#N)c1=O`: the TGI in assay [1] is over 100 µM; in [2] it was over 100 µM; in assay [3] it was 26.3 µM; in assay [4] it was 90.1 µM; in assay [5], 44.6 µM; in [6], 57.6 µM. Besides, the TGI in [7] is over 100 µM; in [8], 73.2 µM; in assay [9], over 100 µM; in assay [10], 41.5 µM.

With `COC(=O)C(Cc1ccccc1)NC(=O)CNC(=O)CSc1nnc(COc2ccc(Cl)cc2)n1-c1ccccc1` (stereo not drawn), the TGI was 31.4 µM in assay [1]; over 20.4 µM in assay [2]; 33 µM in assay [3]; 31.3 µM in assay [4]; 27.4 µM in assay [5]; 35.2 µM in assay [6]. The TGI in [7] came to 32.2 µM; in [8], 37.1 µM; in [9], 47 µM; in assay [10], 31.7 µM.

Take `CN(C)Cc1cc(C(=O)O)cc(CN(C)C)c1O`: the TGI in assay [1], in [2], in assay [3], in [4], in assay [5] and in [6] was over 100 µM in each case. The TGI in assay [7], in assay [8], in assay [9] and in [10] was over 100 µM throughout.

For `CN(C)CCCOC(=O)C(O)(Cc1ccccc1)C1CC1` (stereo not drawn), the TGI in assay [1], in assay [2], in [3], in assay [4], in assay [5] and in [6] was over 100 µM throughout. In addition, the TGI in [7], in assay [8], in assay [9] and in assay [10] was over 100 µM in each case.

In the case of `CCCCCc1c(CCCC)c(=O)[nH]c2cc(CNCC(OC)OC)ccc12`, the TGI in [1] came to 26.2 µM; in assay [2], 17.3 µM; in assay [3], 18.9 µM; in [4], 25.5 µM; in assay [5], 32 µM; in assay [6] it was 26.4 µM. Besides, the TGI in assay [7] stood at 23.9 µM; in assay [8], 29.3 µM; in assay [9], 16.3 µM; in assay [10], 32.2 µM.

Regarding `COC(=O)CC1C2CC3C(C2=O)C13` (stereo not drawn), the TGI in assay [1], in assay [2], in assay [3], in assay [4], in assay [5] and in assay [6] was over 100 µM in each case. Further, the TGI in assay [7], in assay [8], in [9] and in [10] was over 100 µM throughout.

On to `CC(=O)Nc1ccc(Nc2nc(=O)[nH]c(=O)[nH]2)cc1`, for which the TGI in assay [1], in assay [2], in [3], in assay [4], in assay [5] and in assay [6] was over 100 µM throughout. The TGI in [7], in [8], in assay [9] and in [10] was over 100 µM throughout.

Regarding `CC1(C)N=C(N)N=C(N)N1c1cccc(CSc2ccccc2)c1`, the TGI in [1] was over 100 µM; in assay [2], 14.2 µM; in assay [3] it was over 100 µM; in assay [4] it was over 100 µM; in [5] it was over 100 µM; in assay [6], over 100 µM. Also, the TGI is over 100 µM in assay [7], 43.8 µM in assay [8], over 100 µM in assay [9] and over 100 µM in assay [10].

As to `COC1CCC(OC2CC(C3(C)CCC4(CC(O)C(C)C(C(C)/C=C(\C)C(=O)C(C)CC(C)C(=O)O)O4)O3)OC3(OC(C4OC(O)(CO)C(C)CC4C)CC3C)C2C)OC1C` (stereo not drawn), the TGI is 0.355 µM in assay [1]; under 0.0134 µM in assay [2]; 1.66 µM in [3]; 3.14 µM in assay [4]; 1.87 µM in assay [5]; 1.31 µM in assay [6]. Also, the TGI in assay [7] is 1.6 µM; in [8], 0.568 µM; in assay [9], 1.88 µM; in assay [10], 1.79 µM.

For the molecule `COc1ccc(-c2cc(-c3ccc(Nc4ccnc5cc(Cl)ccc45)cc3)nc(N)c2C#N)c2ccccc12`, the TGI in assay [1], in [2], in [3], in [4], in [5] and in assay [6] was over 100 µM each time. Further, the TGI in assay [7], in assay [8], in assay [9] and in assay [10] was over 100 µM throughout.
